Experimental data reported in article PMC10453766, “Comparison of the Effects of DOTA and NOTA Chelators on ^64Cu-Cudotadipep and ^64Cu-Cunotadipep for Prostate Cancer” (Diagnostics, 2023).

Experiments:
PC3-PIP (PSMA+) cells = test: Cell uptake in PC3-PIP cells; format: cell-based, human; settings: PC3-PIP cells, 1 × 10^6 cells, 3.7 MBq, 2 h, 37 °C
Procedure: (§1) PC3-PIP or PC3-flu cells (1 × 10^6) were mixed with 3.7 MBq (100 μCi) of ^64Cu-cudotadipep or ^64Cu-cunotadipep and incubated at 37 °C and 5% CO2 for 2 h. Following incubation, the cells were washed with PBS twice and collected via centrifugation (2000 rpm, 5 min). Radioactivity was measured using 2480 WIZARD2 gamma counter (Perkin Elmer, Waltham, MA, USA). Percent (%) uptake was calculated using the ratio between the radioactivity of the cells and treated radioactivity.

PC3-flu (PSMA−) cells = test: Cell uptake in PC3-flu cells; format: cell-based, human; settings: 1 × 10^6 cells, 3.7 MBq, 2 h, 37 °C
Procedure: as §1

[1] = Biodistribution in normal BALB/c mice; format: in vivo, mouse; settings: tail vein
Procedure: (§2) Approximately 0.93 MBq ^64Cu-cudotadipep or ^64Cu-cunotadipep was injected via the tail vein into normal BALB/c mice or PC3-PIP tumor-bearing nude mice (n = 5/group). Normal and tumor-bearing mice were euthanized at 2, 6, 24, and 48 h following injection. Tumor and normal tissues were excised and weighed, and their radioactivity was measured using a gamma counter (2480 WIZARD2 gamma counter, Perkin Elmer, Waltham, MA, USA). The radioactivity measured in each tissue was expressed as a percentage of the injected dose per gram of tissue (%ID/g).

PC3-PIP tumor xenograft = test: Biodistribution in PC3-PIP tumor-bearing nude mice; format: in vivo, mouse; settings: tail vein
Procedure: All animal experiments followed the procedures approved by the Institutional Animal Care and Use Committee of Korea Institute of Radiological & Medical Sciences (approval No. KIRAMS2021-0044). Male BALB/c mice and athymic nude (Nu/Nu) BALB/c mice (weighing 20–25 g, 8 weeks old) were purchased from Nara Biotech (Seoul, Republic of Korea). PC3-PIP cells (1 × 10^7) were dispensed in 100 μL PBS, mixed with Matrigel, and subcutaneously implanted in the right thigh of male athymic nude (Nu/Nu) BALB/c mice. When the tumor reached 0.5–0.9 cm in diameter (2–3 weeks following implantation), biodistribution studies and PET imaging were performed.
as §2

[2] = Radiation-absorbed dose calculation (OLINDA/EXM) from normal mouse biodistribution; set-up: species or system human
Procedure: The biodistribution results of normal BALB/c mice were used to evaluate the human radiation-absorbed dose. The internal absorbed doses of ^64Cu-cudotadipep and ^64Cu-cunotadipep were evaluated using the residence time and total amount of radioactivity in the target organ of the mice. The internal absorbed dose of the mice was converted to the human dose based on the Medical Internal Radiation Dose schema, using OLINDA/EXM version 1.1 software.

O=C([O-])CN1CCN(CC(=O)[O-])CCN(CC(=O)N[C@@H](CCCCNC(=O)CCCc2ccc(I)cc2)C(=O)NCCOCCOCC(=O)N(CCCC[C@H](NC(=O)N[C@@H](CCC(=O)O)C(=O)O)C(=O)O)CC(=O)O)CCN(CC(=O)[O-])CC1.[64Cu+2] [^64Cu-cudotadipep]
cellular uptake (PC3-PIP (PSMA+) cells): 2.93 ± 0.06% | cellular uptake (PC3-flu (PSMA−) cells): 0.44 ± 0.06% | Biodistribution, Blood ([1]; 2 h): 4.27 ± 0.64 %ID/g | Biodistribution, Bone ([1]; 2 h): 1.09 ± 0.32 %ID/g | Biodistribution, Brain ([1]; 2 h): 0.26 ± 0.07 %ID/g | Biodistribution, Fat ([1]; 2 h): 1.26 ± 0.28 %ID/g | Biodistribution, Heart ([1]; 2 h): 3.02 ± 0.52 %ID/g | Biodistribution, Intestine ([1]; 2 h): 4.22 ± 0.57 %ID/g | Biodistribution, Kidney ([1]; 2 h): 45.74 ± 12.68 %ID/g | Biodistribution, Liver ([1]; 2 h): 16.12 ± 4.51 %ID/g | Biodistribution, Lung ([1]; 2 h): 5.16 ± 1.26 %ID/g | Biodistribution, Muscle ([1]; 2 h): 1.01 ± 0.15 %ID/g | Biodistribution, Spleen ([1]; 2 h): 6.80 ± 2.46 %ID/g | Biodistribution, Stomach ([1]; 2 h): 2.30 ± 0.60 %ID/g | Biodistribution, Blood ([1]; 6 h): 2.04 ± 0.71 %ID/g | Biodistribution, Bone ([1]; 6 h): 1.10 ± 0.40 %ID/g | Biodistribution, Brain ([1]; 6 h): 0.25 ± 0.10 %ID/g | Biodistribution, Fat ([1]; 6 h): 0.72 ± 0.13 %ID/g | Biodistribution, Heart ([1]; 6 h): 2.67 ± 0.53 %ID/g | Biodistribution, Intestine ([1]; 6 h): 5.85 ± 2.69 %ID/g | Biodistribution, Kidney ([1]; 6 h): 56.43 ± 5.37 %ID/g | Biodistribution, Liver ([1]; 6 h): 19.13 ± 5.32 %ID/g | Biodistribution, Lung ([1]; 6 h): 5.77 ± 1.12 %ID/g | Biodistribution, Muscle ([1]; 6 h): 0.74 ± 0.18 %ID/g | Biodistribution, Spleen ([1]; 6 h): 7.09 ± 0.68 %ID/g | Biodistribution, Stomach ([1]; 6 h): 2.26 ± 1.59 %ID/g | Biodistribution, Blood ([1]; 24 h): 2.01 ± 0.92 %ID/g | Biodistribution, Bone ([1]; 24 h): 0.94 ± 0.41 %ID/g | Biodistribution, Brain ([1]; 24 h): 0.37 ± 0.08 %ID/g | Biodistribution, Fat ([1]; 24 h): 0.70 ± 0.33 %ID/g | Biodistribution, Heart ([1]; 24 h): 2.91 ± 0.66 %ID/g | Biodistribution, Intestine ([1]; 24 h): 3.64 ± 0.83 %ID/g | Biodistribution, Kidney ([1]; 24 h): 41.77 ± 12.09 %ID/g | Biodistribution, Liver ([1]; 24 h): 16.15 ± 3.65 %ID/g | Biodistribution, Lung ([1]; 24 h): 5.56 ± 1.13 %ID/g | Biodistribution, Muscle ([1]; 24 h): 0.68 ± 0.18 %ID/g | Biodistribution, Spleen ([1]; 24 h): 4.14 ± 0.89 %ID/g | Biodistribution, Stomach ([1]; 24 h): 1.38 ± 0.15 %ID/g | Biodistribution, Blood ([1]; 48 h): 1.22 ± 0.36 %ID/g | Biodistribution, Bone ([1]; 48 h): 0.96 ± 0.25 %ID/g | Biodistribution, Brain ([1]; 48 h): 0.44 ± 0.13 %ID/g | Biodistribution, Fat ([1]; 48 h): 0.51 ± 0.27 %ID/g | Biodistribution, Heart ([1]; 48 h): 2.72 ± 0.39 %ID/g | Biodistribution, Intestine ([1]; 48 h): 2.53 ± 0.54 %ID/g | Biodistribution, Kidney ([1]; 48 h): 24.37 ± 1.88 %ID/g | Biodistribution, Liver ([1]; 48 h): 13.48 ± 1.56 %ID/g | Biodistribution, Lung ([1]; 48 h): 4.66 ± 0.50 %ID/g | Biodistribution, Muscle ([1]; 48 h): 0.62 ± 0.12 %ID/g | Biodistribution, Spleen ([1]; 48 h): 2.73 ± 0.28 %ID/g | Biodistribution, Stomach ([1]; 48 h): 1.45 ± 0.65 %ID/g | Biodistribution, Blood (PC3-PIP tumor xenograft; 2 h): 2.79 ± 1.90 %ID/g | Biodistribution, Bone (PC3-PIP tumor xenograft; 2 h): 1.34 ± 0.23 %ID/g | Biodistribution, Fat (PC3-PIP tumor xenograft; 2 h): 2.22 ± 1.07 %ID/g | Biodistribution, Heart (PC3-PIP tumor xenograft; 2 h): 2.68 ± 0.45 %ID/g | Biodistribution, Intestine (PC3-PIP tumor xenograft; 2 h): 5.19 ± 0.68 %ID/g | Biodistribution, Kidney (PC3-PIP tumor xenograft; 2 h): 23.11 ± 4.11 %ID/g | Biodistribution, Liver (PC3-PIP tumor xenograft; 2 h): 28.09 ± 3.73 %ID/g | Biodistribution, Lung (PC3-PIP tumor xenograft; 2 h): 8.02 ± 1.49 %ID/g | Biodistribution, Muscle (PC3-PIP tumor xenograft; 2 h): 0.78 ± 0.13 %ID/g | Biodistribution, Spleen (PC3-PIP tumor xenograft; 2 h): 11.94 ± 3.50 %ID/g | Biodistribution, Stomach (PC3-PIP tumor xenograft; 2 h): 2.35 ± 0.63 %ID/g | Biodistribution, Tumor (PC3-PIP tumor xenograft; 2 h): 7.95 ± 1.58 %ID/g | Biodistribution, Blood (PC3-PIP tumor xenograft; 6 h): 1.92 ± 0.53 %ID/g | Biodistribution, Bone (PC3-PIP tumor xenograft; 6 h): 1.25 ± 0.20 %ID/g | Biodistribution, Fat (PC3-PIP tumor xenograft; 6 h): 1.12 ± 0.79 %ID/g | Biodistribution, Heart (PC3-PIP tumor xenograft; 6 h): 2.30 ± 0.30 %ID/g | Biodistribution, Intestine (PC3-PIP tumor xenograft; 6 h): 4.55 ± 0.77 %ID/g | Biodistribution, Kidney (PC3-PIP tumor xenograft; 6 h): 21.51 ± 3.13 %ID/g | Biodistribution, Liver (PC3-PIP tumor xenograft; 6 h): 22.44 ± 2.56 %ID/g | Biodistribution, Lung (PC3-PIP tumor xenograft; 6 h): 7.35 ± 3.45 %ID/g | Biodistribution, Muscle (PC3-PIP tumor xenograft; 6 h): 0.40 ± 0.13 %ID/g | Biodistribution, Spleen (PC3-PIP tumor xenograft; 6 h): 11.43 ± 5.81 %ID/g | Biodistribution, Stomach (PC3-PIP tumor xenograft; 6 h): 2.18 ± 0.47 %ID/g | Biodistribution, Tumor (PC3-PIP tumor xenograft; 6 h): 6.03 ± 3.20 %ID/g | Biodistribution, Blood (PC3-PIP tumor xenograft; 24 h): 1.75 ± 0.41 %ID/g | Biodistribution, Bone (PC3-PIP tumor xenograft; 24 h): 1.88 ± 0.35 %ID/g | Biodistribution, Fat (PC3-PIP tumor xenograft; 24 h): 1.23 ± 0.52 %ID/g | Biodistribution, Heart (PC3-PIP tumor xenograft; 24 h): 2.56 ± 0.49 %ID/g | Biodistribution, Intestine (PC3-PIP tumor xenograft; 24 h): 4.17 ± 1.45 %ID/g | Biodistribution, Kidney (PC3-PIP tumor xenograft; 24 h): 21.57 ± 6.53 %ID/g | Biodistribution, Liver (PC3-PIP tumor xenograft; 24 h): 20.08 ± 4.40 %ID/g | Biodistribution, Lung (PC3-PIP tumor xenograft; 24 h): 6.00 ± 0.85 %ID/g | Biodistribution, Muscle (PC3-PIP tumor xenograft; 24 h): 0.69 ± 0.33 %ID/g | Biodistribution, Spleen (PC3-PIP tumor xenograft; 24 h): 10.43 ± 1.98 %ID/g | Biodistribution, Stomach (PC3-PIP tumor xenograft; 24 h): 2.66 ± 1.28 %ID/g | Biodistribution, Tumor (PC3-PIP tumor xenograft; 24 h): 12.12 ± 1.17 %ID/g | Biodistribution, Blood (PC3-PIP tumor xenograft; 48 h): 1.28 ± 0.24 %ID/g | Biodistribution, Bone (PC3-PIP tumor xenograft; 48 h): 5.05 ± 6.09 %ID/g | Biodistribution, Fat (PC3-PIP tumor xenograft; 48 h): 0.88 ± 0.42 %ID/g | Biodistribution, Heart (PC3-PIP tumor xenograft; 48 h): 2.55 ± 0.12 %ID/g | Biodistribution, Intestine (PC3-PIP tumor xenograft; 48 h): 2.56 ± 0.62 %ID/g | Biodistribution, Kidney (PC3-PIP tumor xenograft; 48 h): 20.41 ± 3.03 %ID/g | Biodistribution, Liver (PC3-PIP tumor xenograft; 48 h): 13.34 ± 0.55 %ID/g | Biodistribution, Lung (PC3-PIP tumor xenograft; 48 h): 4.36 ± 0.62 %ID/g | Biodistribution, Muscle (PC3-PIP tumor xenograft; 48 h): 0.98 ± 0.24 %ID/g | Biodistribution, Spleen (PC3-PIP tumor xenograft; 48 h): 5.74 ± 1.34 %ID/g | Biodistribution, Stomach (PC3-PIP tumor xenograft; 48 h): 1.72 ± 0.70 %ID/g | Biodistribution, Tumor (PC3-PIP tumor xenograft; 48 h): 8.62 ± 0.44 %ID/g | effective dose ([2]; ICRP tissue-weighting factors, OLINDA/EXM, extrapolated from mouse biodistribution): 3.67 × 10^−1 mSv/MBq | estimated radiation-absorbed dose, kidneys ([2]; adult males, extrapolated from normal BALB/c mouse biodistribution): 8.10 mGy/MBq
